Literature values, collected in patent US8821913B2, “Controlled releases system containing temozolomide” (Tasly Holding Group Co., Ltd., priority 2002, dated 2014).
Read-outs that look alike come from different tables or passages of the source.

Experiments:
[1] = phase I clinical trial
[2] = mouse

Cn1nnc2c(C(N)=O)ncn2c1=O [TMZ, Temozolomide]
half-life time [1]: 1.8 h
time to reach maximum plasma concentration [1]: ≤ 0.7 h
half-life time ([2]; i.p.): 1.13 h
half-life time ([2]; p.o.): 1.29 h
